Reference: patent US10168338B2, “Methods of identifying modulators of sestrin-gator-2 interaction for modulating mTORC1 activity” (Whitehead Institute for Biomedical Research, priority 2014, dated 2019)

Target: T1, Sestrin3 (Homo sapiens, UniProt P58005)
T1 construct: expressed in transfected cells; host or cells: HEK-293T, transient transfection of a pRK5-based cDNA plasmid, anti-FLAG immunoprecipitation
T1 sequence (P58005 1-492): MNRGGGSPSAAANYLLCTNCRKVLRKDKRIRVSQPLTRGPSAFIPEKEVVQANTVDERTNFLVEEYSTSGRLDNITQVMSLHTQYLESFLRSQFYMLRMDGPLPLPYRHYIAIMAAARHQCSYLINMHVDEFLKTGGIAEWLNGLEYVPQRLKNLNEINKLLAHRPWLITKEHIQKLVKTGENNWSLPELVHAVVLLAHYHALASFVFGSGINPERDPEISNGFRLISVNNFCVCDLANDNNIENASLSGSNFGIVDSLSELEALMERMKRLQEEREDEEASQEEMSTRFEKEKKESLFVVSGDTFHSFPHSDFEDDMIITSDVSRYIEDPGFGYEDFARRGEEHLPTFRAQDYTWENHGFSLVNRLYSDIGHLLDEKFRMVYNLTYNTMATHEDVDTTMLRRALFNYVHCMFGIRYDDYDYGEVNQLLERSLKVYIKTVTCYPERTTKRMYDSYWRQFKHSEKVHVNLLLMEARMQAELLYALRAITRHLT
Assay: [3H]-leucine binding to FLAG-Sestrin3 immunoprecipitated from HEK-293T cells
Details: FLAG-tagged protein from HEK-293T
Protocol: Four million HEK-293T cells were plated in a 15 cm plate four days prior to the experiment. Each plate yielded the protein for one sample. Forty-eight hours after plating, the cells were transfected via the polyethylenimine method (O. Boussif et al., PNAS (USA), 92:7297-7301 (1995)) with the pRK5-based cDNA expression plasmids indicated in the figures in the following amounts: 5 μgFLAG-Sestrin2; 12 μg of the negative control Rap2A; 5 μg WDR24; 2 μg WDR24 with 4 μg each of HA-Seh1L, HA-Sec13, HA-Mios, and HA-WDR59; 12 […] (CG11299-PD); 12 μgFLAG-Sestrin1.1; 12 μg FLAG-Sestrin1.2; 12 μg FLAG-Sestrin3; 12 μg FLAG-Sestrin2 mutants (L261A, E451A, S190A) and up to 20 μg total DNA with empty-PRK5. Forty-eight hours after transfection cells were lysed as described in Example 1. […]
For the binding assays, two tubes at a time were washed as previously indicated for immunoprecipitations. […] With a cut tip, each sample was mixed well and three 10 μl aliquots were separately quantified using a TriCarb® scintillation counter (PerkinElmer). This process was repeated in pairs for each sample, to ensure similar incubation and wash times for all samples analyzed across different experiments.

binding of leucine to Sestrin3: only slightly above background
Structure (SMILES): CC(C)C[C@H](N)C(=O)O [leucine]
